Experimental data published in PMC9920912, “In Vitro Binding Effects of the Ecdysone Receptor−Binding Domain and PonA in Plutella xylostella” (Molecules, 2023).

Key:
[1] = molecular target: T1, ecdysone receptor (PxGST−EcR) (Plutella xylostella, UniProt G5CV07); experiment: biochemical
T1 sequence (G5CV07 285-528): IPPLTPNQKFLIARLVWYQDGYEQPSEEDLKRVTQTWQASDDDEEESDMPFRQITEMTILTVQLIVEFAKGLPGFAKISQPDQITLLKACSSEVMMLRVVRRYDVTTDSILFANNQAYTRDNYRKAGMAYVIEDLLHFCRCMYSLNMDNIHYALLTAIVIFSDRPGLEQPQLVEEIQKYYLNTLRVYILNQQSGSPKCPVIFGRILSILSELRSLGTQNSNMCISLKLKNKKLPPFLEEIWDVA
T1 sequence (G5CV12 133-414 partner limits assumed): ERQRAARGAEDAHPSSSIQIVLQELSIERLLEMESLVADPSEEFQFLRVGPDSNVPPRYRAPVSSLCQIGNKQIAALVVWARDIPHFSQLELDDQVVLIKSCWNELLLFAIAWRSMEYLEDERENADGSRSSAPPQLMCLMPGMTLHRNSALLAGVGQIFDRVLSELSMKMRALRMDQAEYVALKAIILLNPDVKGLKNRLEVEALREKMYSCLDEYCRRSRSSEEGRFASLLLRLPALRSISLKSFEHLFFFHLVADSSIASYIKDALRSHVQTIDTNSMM

[2] = molecular target: T1, ecdysone receptor (PxGST−EcR); experiment: competitive radioligand binding, displacement of [3H]PonA from purified EcR/USP dimer; parameters: truncated LBD-containing functional domain (D and E domains) fused to GST; with USP (PxGST−USP)
[3] = molecular target: T2, PxGST-EcR (Plutella xylostella ecdysone receptor, truncated LBD-containing functional domain fused to … (Plutella xylostella, UniProt G5CV07)); experiment: TEM and zeta potential of co-incubated proteins, supported by enhanced [3H]PonA binding
T2 chain: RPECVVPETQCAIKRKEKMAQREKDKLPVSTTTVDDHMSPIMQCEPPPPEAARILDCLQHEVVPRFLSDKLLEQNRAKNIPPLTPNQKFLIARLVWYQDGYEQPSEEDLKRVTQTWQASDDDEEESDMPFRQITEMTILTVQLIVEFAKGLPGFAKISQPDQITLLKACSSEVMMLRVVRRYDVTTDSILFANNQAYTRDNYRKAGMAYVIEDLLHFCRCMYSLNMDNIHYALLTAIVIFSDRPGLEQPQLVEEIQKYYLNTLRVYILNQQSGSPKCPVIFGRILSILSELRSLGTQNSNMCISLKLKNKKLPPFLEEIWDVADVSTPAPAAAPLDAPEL

Molecule: CC(C)CC[C@@H](O)[C@](C)(O)[C@H]1CC[C@@]2(O)C3=CC(=O)[C@@H]4C[C@@H](O)[C@@H](O)C[C@]4(C)[C@H]3CC[C@]12C [PonA]
- Kd [1]: 2.3 nM

Molecule: CCc1ccc(C(=O)NN(C(=O)c2cc(C)cc(C)c2)C(C)(C)C)cc1 [tebufenozide]
- IC50 [2]: 80.6 nM

B1: PxGST-USP (Plutella xylostella ultraspiracle, truncated LBD-containing functional domain fused to glutathione-S-transferase) (protein)
chain: KREAVQEERQRAARGAEDAHPSSSIQIVLQELSIERLLEMESLVADPSEEFQFLRVGPDSNVPPRYRAPVSSLCQIGNKQIAALVVWARDIPHFSQLELDDQVVLIKSCWNELLLFAIAWRSMEYLEDERENADGSRSSAPPQLMCLMPGMTLHRNSALLAGVGQIFDRVLSELSMKMRALRMDQAEYVALKAIILLNPDVKGLKNRLEVEALREKMYSCLDEYCRRSRSSEEGRFASLLLRLPALRSISLKSFEHLFFFHLVADSSIASYIKDALRSHVQTIDTNSMM
- binding result [3]: binds
